Source: patent publication US20230002359A1, “PESTICIDALLY ACTIVE FUSED BICYCLIC HETEROAROMATIC COMPOUNDS” (priority 2019, published 2023)

Experiments:
Assay type in all cases: in vivo
[1] = test system: Spodoptera littoralis (Egyptian Cotton Leaf Worm); experiment: Example B7: Spodoptera littoralis (Egyptian cotton leaf worm), cotton leaf discs sprayed, L1 larvae; details: foliar, 72 h, application rate of 200 ppm, 3 days after infestation, L1 larvae, read-out: control in at least one of the three categories (mortality, anti-feedant effect, or growth inhibition)
Procedure: Cotton leaf discs were placed onto agar in 24-well microtiter plates and sprayed with aqueous test solutions prepared from 10′000 ppm DMSO stock solutions. After drying the leaf discs were infested with five L1 larvae. The samples were assessed for mortality, anti-feeding effect, and growth inhibition in comparison to untreated samples 3 days after infestation. Control of Spodoptera littoralis by a test sample is given when at least one of the categories mortality, anti-feedant effect, and growth inhibition is higher than the untreated sample.

[2] = test system: Plutella xylostella (Diamond Back Moth); experiment: Example B4: Plutella xylostella (diamond back moth), artificial diet, eggs, 24-well; details: 192 h, application rate of 200 ppm, 8 days after infestation, eggs, read-out: control in at least one of the two categories (mortality or growth inhibition)
Procedure: 24-well microtiter plates with artificial diet were treated with aqueous test solutions prepared from 10′000 ppm DMSO stock solutions by pipetting. After drying, Plutella eggs were pipetted through a plastic stencil onto a gel blotting paper and the plate was closed with it. The samples were assessed for mortality and growth inhibition in comparison to untreated samples 8 days after infestation.

[3] = test system: Diabrotica Balteata (Corn Root Worm); experiment: Example B1: Diabrotica balteata (corn root worm), maize sprouts sprayed, L2 larvae; details: 96 h, application rate of 200 ppm, 4 days after infestation, L2 larvae, read-out: control in at least one of the two categories (mortality or growth inhibition)
Summary of the method: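 Spray test: maize sprouts on agar, aqueous dilutions of 10′000 ppm DMSO stock; after drying, 6–10 L2 larvae/well. Read-out at 4 d post-infestation: mortality and growth inhibition vs untreated.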

[4] = test system: Chilo suppressalis (Striped Rice Stemborer); experiment: Example B3: Chilo suppressalis (striped rice stemborer), artificial diet, L2 larvae; details: 144 h, application rate of 200 ppm, 6 days after infestation, L2 larvae, read-out: control in at least one of the three categories (mortality, anti-feedant effect, or growth inhibition)
Summary of the method: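 Diet-incorporation surface assay: aqueous dilutions of 10'000 ppm DMSO stock applied to artificial diet, dried; 6-8 L2 larvae/well; read day 6 post-infestation for mortality, antifeedant effect, growth inhibition vs untreated. Active if any category above untreated.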

CC(Nc1ncnc2c(Br)cc(C(F)(F)F)cc12)c1nccnc1-c1ccc(OC(F)F)cn1 (stereo not shown) [P.111, 8-bromo-N-[1-[3-[5-(difluoromethoxy)-2-pyridyl]pyrazin-2-yl]ethyl]-6-(trifluoromethyl)quinazolin-4-amine]
≥ 80%: percent control (mortality, anti-feedant effect or growth inhibition) at 200 ppm [1] | percent control (mortality or growth inhibition) at 200 ppm [2] | percent control (mortality or growth inhibition) at 200 ppm [3] | percent control (mortality, anti-feedant effect or growth inhibition) at 200 ppm [4]

CC(Nc1ncnc2c(C(F)(F)F)cc(C(F)(F)F)cc12)c1nccnc1-n1nccn1 (stereo not shown) [P.56, N-[1-[3-(triazol-2-yl)pyrazin-2-yl]ethyl]-6,8-bis(trifluoromethyl)quina-zolin-4-amine]
≥ 80%: percent control (mortality, anti-feedant effect or growth inhibition) at 200 ppm [1] | percent control (mortality or growth inhibition) at 200 ppm [2] | percent control (mortality or growth inhibition) at 200 ppm [3] | percent control (mortality, anti-feedant effect or growth inhibition) at 200 ppm [4]

CC(c1nccnc1-c1ncccn1)N(C)c1ccnc2c(C(F)(F)F)cc(C(F)(F)F)cc12 (stereo not shown) [P.249, N-methyl-N-[1-(3-pyrimidin-2-ylpyrazin-2-yl)ethyl]-6,8-bis(trifluoromethyl)quino-lin-4-amine]
≥ 80%: percent control (mortality, anti-feedant effect or growth inhibition) at 200 ppm [1] | percent control (mortality or growth inhibition) at 200 ppm [2] | percent control (mortality or growth inhibition) at 200 ppm [3] | percent control (mortality, anti-feedant effect or growth inhibition) at 200 ppm [4]

CC(Nc1ncnc2c(Br)cc(C(F)(F)F)cc12)c1nccnc1-n1nccn1 (stereo not shown) [P.34, 8-bromo-N-[1-[3-(triazol-2-yl)pyrazin-2-yl]ethyl]-6-(trifluoromethyl)quinazolin-4-amine]
≥ 80%: percent control (mortality, anti-feedant effect or growth inhibition) at 200 ppm [1] | percent control (mortality or growth inhibition) at 200 ppm [2] | percent control (mortality or growth inhibition) at 200 ppm [3] | percent control (mortality, anti-feedant effect or growth inhibition) at 200 ppm [4]

CC(Nc1ncnc2c(Br)cc(OC(F)(F)F)cc12)c1nccnc1-n1nccn1 (stereo not shown) [P.13, 8-bromo-N-[1-[3-(triazol-2-yl)pyrazin-2-yl]ethyl]-6-(trifluoromethoxy)quina-zolin-4-amine]
≥ 80%: percent control (mortality, anti-feedant effect or growth inhibition) at 200 ppm [1] | percent control (mortality or growth inhibition) at 200 ppm [2] | percent control (mortality or growth inhibition) at 200 ppm [3] | percent control (mortality, anti-feedant effect or growth inhibition) at 200 ppm [4]

C[C@@H](c1ncnn1-c1ccc(C#N)cn1)N(C)c1ccnc2c(C(F)(F)F)cc(C(F)(F)F)cc12 [P.214, 6-[5-[(1S)-1-[[6,8-bis(trifluoromethyl)-4-quinolyl]-methyl-amino]ethyl]-1,2,4-triazol-1-yl]pyridine-3-carbonitrile]
≥ 80%: percent control (mortality, anti-feedant effect or growth inhibition) at 200 ppm [1] | percent control (mortality or growth inhibition) at 200 ppm [2] | percent control (mortality or growth inhibition) at 200 ppm [3] | percent control (mortality, anti-feedant effect or growth inhibition) at 200 ppm [4]

CC(c1ncnn1-c1ccc(C#N)cn1)N(C)c1c(C#N)cnc2c(C(F)(F)F)cc(C(F)(F)F)cc12 (stereo not shown) [P.224, 4-[1-[2-(5-cyano-2-pyridyl)-1,2,4-tirazol-3-yl]ethyl-methyl-amino]-6,8-bis(trifluoromethy)quino-line-3-carbonitrile]
≥ 80%: percent control (mortality, anti-feedant effect or growth inhibition) at 200 ppm [1] | percent control (mortality or growth inhibition) at 200 ppm [2] | percent control (mortality or growth inhibition) at 200 ppm [3] | percent control (mortality, anti-feedant effect or growth inhibition) at 200 ppm [4]

CC(c1ncnn1-c1ccc(F)cn1)N(C)c1ncnc2c(Br)cc(C(F)(F)F)cc12 (stereo not shown) [P.185, 8-bromo-N-[1-[2-(5-fluoro-2-pyridyl)-1,2,4-triazol-3-yl]ethyl]-N-methyl-6-(trifluoromethyl)quinazolin-4-amine]
≥ 80%: percent control (mortality, anti-feedant effect or growth inhibition) at 200 ppm [1] | percent control (mortality or growth inhibition) at 200 ppm [2] | percent control (mortality or growth inhibition) at 200 ppm [3] | percent control (mortality, anti-feedant effect or growth inhibition) at 200 ppm [4]

CC(Nc1ncnc2c(Br)cc(C(F)(F)F)cc12)c1nccnc1-c1ccc(C#N)cn1 (stereo not shown) [P.117, 6-[3-[1-[[8-bromo-6-(trifluoromethyl)quinazolin-4-yl]amino]ethyl]pyrazin-2-yl]pyridine-3-carbonitrile]
≥ 80%: percent control (mortality, anti-feedant effect or growth inhibition) at 200 ppm [1] | percent control (mortality or growth inhibition) at 200 ppm [2] | percent control (mortality or growth inhibition) at 200 ppm [3] | percent control (mortality, anti-feedant effect or growth inhibition) at 200 ppm [4]

CC(Nc1ncnc2c(C(F)(F)F)cc(Cl)cc12)c1nccnc1-c1ccc(OC(F)F)cn1 (stereo not shown) [P.120, 6-chloro-N-[1-[3-[5-(difluoromethoxy)-2-pyridyl]pyrazin-2-yl]ethyl]-8-(trifluoromethyl)quinazolin-4-amine]
≥ 80%: percent control (mortality, anti-feedant effect or growth inhibition) at 200 ppm [1] | percent control (mortality or growth inhibition) at 200 ppm [2] | percent control (mortality or growth inhibition) at 200 ppm [3] | percent control (mortality, anti-feedant effect or growth inhibition) at 200 ppm [4]

CC(c1ncnn1-c1ccc(C#N)cn1)N(C#N)c1ncnc2c(C(F)(F)F)cc(C(F)(F)F)cc12 (stereo not shown) [P.9, [6,8-bis(trifluoromethyl)quina-zolin-4-yl]-[1-[2-(5-cyano-2-pyridyl)-1,2,4-triazol-3-yl]ethyl]cyanamide]
≥ 80%: percent control (mortality, anti-feedant effect or growth inhibition) at 200 ppm [1] | percent control (mortality or growth inhibition) at 200 ppm [2] | percent control (mortality or growth inhibition) at 200 ppm [3] | percent control (mortality, anti-feedant effect or growth inhibition) at 200 ppm [4]

CC(c1nccnc1-n1nccn1)N(C)c1ncnc2c(C(F)(F)F)cc(C(F)(F)F)cc12 (stereo not shown) [P.103, N-methyl-N-[1-[3-(triazol-2-yl)pyrazin-2-yl]ethyl]-6,8-bis(trifluoromethyl)quina-zolin-4-amine]
≥ 80%: percent control (mortality, anti-feedant effect or growth inhibition) at 200 ppm [1] | percent control (mortality or growth inhibition) at 200 ppm [2] | percent control (mortality or growth inhibition) at 200 ppm [3] | percent control (mortality, anti-feedant effect or growth inhibition) at 200 ppm [4]

CC(c1ncnn1-c1ccc(Br)cn1)N(C)c1ncnc2c(C(F)(F)F)cc(C(F)(F)F)cc12 (stereo not shown) [P.241, N-[1-[2-(5-bromo-2-pyridyl)-1,2,4-triazol-3-yl]ethyl]-N-methyl-6,8-bis(trifluoromethyl)quina-zolin-4-amine]
≥ 80%: percent control (mortality, anti-feedant effect or growth inhibition) at 200 ppm [1] | percent control (mortality or growth inhibition) at 200 ppm [2] | percent control (mortality or growth inhibition) at 200 ppm [3] | percent control (mortality, anti-feedant effect or growth inhibition) at 200 ppm [4]

CC(c1nccnc1-c1ncccn1)N(C)c1ncnc2c(Cl)cc(C(F)(F)F)cc12 (stereo not shown) [P.100, 8-chloro-N-methyl-N-[1-(3-pyrimidin-2-ylpyrazin-2-yl)ethyl]-6-(trifluoromethyl)quinazolin-4-amine]
≥ 80%: percent control (mortality, anti-feedant effect or growth inhibition) at 200 ppm [1] | percent control (mortality or growth inhibition) at 200 ppm [2] | percent control (mortality or growth inhibition) at 200 ppm [3] | percent control (mortality, anti-feedant effect or growth inhibition) at 200 ppm [4]

CC(c1ncnn1-c1ccc(F)cn1)N(C)c1ncnc2c(Cl)cc(C(F)(F)F)cc12 (stereo not shown) [P.232, 8-chloro-N-[1-[2-(5-fluoro-2-pyridyl)-1,2,4-triazol-3-yl]ethyl]-N-methyl-6-(trifluoromethyl)quinazolin-4-amine]
≥ 80%: percent control (mortality, anti-feedant effect or growth inhibition) at 200 ppm [1] | percent control (mortality or growth inhibition) at 200 ppm [2] | percent control (mortality or growth inhibition) at 200 ppm [3] | percent control (mortality, anti-feedant effect or growth inhibition) at 200 ppm [4]

CC(Nc1ncnc2c(C(F)(F)F)cc(C(F)(F)F)cc12)c1nccnc1-c1ccc(OC(F)F)cn1 (stereo not shown) [P.109, N-[1-[3-[5-(difluoromethoxy)-2-pyridyl]pyrazin-2-yl]ethyl]-6,8-bis(trifluoromethyl)quina-zolin-4-amine]
≥ 80%: percent control (mortality, anti-feedant effect or growth inhibition) at 200 ppm [1] | percent control (mortality or growth inhibition) at 200 ppm [2] | percent control (mortality or growth inhibition) at 200 ppm [3] | percent control (mortality, anti-feedant effect or growth inhibition) at 200 ppm [4]
